“Also recorded” adds a separate entry of the source.
What was measured:
beagle dogs [1] = assay: Alternative dosing study in dogs: indicators of thyroid function (serum tT4, fT4, tT3, fT3, TSH); format: in vivo
Procedure: (§1) The objective of the study was to determine the effects of oral administration of Compound 2 once-daily for 14 days followed by alternate day dosing for 14 days on plasma cholesterol levels and indicators of thyroid function in beagle dogs. Compound 2 was formulated with Lutrol F68 NF (Poloxomer 188) and carboxymethylcellulose (CMC; sodium salt/high viscosity) and was administered as a suspension in 0.5% CMC/1% Lutrol in deionized water. Twelve beagle dogs (9-15 kg) were randomized into 6 dosing groups (1 male and 1 female/group) and gavaged once-daily with a 0.5% CMC/1% Lutrol F68 suspension of Compound 2 at doses of […] or with vehicle for 14 days. At the end of the treatment cycle (Cycle 1), the dogs were washed out for 4 weeks and then entered into a second 14-day treatment cycle. Cycle 2 employed the same dosing paradigm as Cycle 1, but animals were randomized to Cycle 2 in such a way that the combined dosing groups from the two cycles consisted of 4 different animals (2 males, 2 females) each. At the conclusion of Cycle 2, dosing was continued on alternate days for an additional 14-day period (Cycle 2 Extension). Blood samples were collected at baseline and appropriate time intervals thereafter and analyzed for total plasma cholesterol levels, serum levels of total T4 (tT4), free T4 (fT4), total T3 (tT3), free T3 (fT3), and thyroid stimulating hormone (TSH).

beagle dogs [2] = assay: Alternative dosing study in dogs: total plasma cholesterol levels; format: in vivo
Procedure: as §1

[3] = test system: patients with primary hypercholesterolemia and non-alcoholic fatty liver disease; assay: Phase 1b study: LDL-C and triglycerides over 4-week treatment period; format: in vivo, humans; settings: 5 mg daily and up to 40 mg once weekly
Procedure: A phase 1b, randomized, double-blind, placebo-controlled, study is carried out to assess the efficacy, safety, and tolerability of Compound 1, administered for 12 weeks followed by a 4-week off-drug phase, in patients with primary hypercholesterolemia and non-alcoholic fatty liver disease.
(§2) The maximum cumulative weekly dose will not exceed 40 mg in this current clinical study. […] The projected systemic exposure (AUC0-168 hr [i.e., exposure during one week]) of the active metabolite at the 40 mg once weekly dose is 5570 ng*hr/mL. […] Projected exposures in humans receiving 40 mg once weekly is therefore estimated to be about 3-fold lower than exposures at the previously determined 5 mg/kg/day no observable adverse effect level (NOAEL).
Approximately 32 subjects are enrolled and randomly assigned in a 6:2 ratio (Compound 1:placebo) to one of the following treatment groups: (1) 5 mg Compound 1 or Placebo once daily (2) 20 mg Compound 1 or Placebo once weekly (3) 40 mg Compound 1 or Placebo once weekly (4) 10 mg Compound 1 or Placebo every other day The primary endpoint is the percent change in LDL-C from the baseline visit to Day 29. Either a 20% decrease in LDL-C or a lowering of LDL-C to within the normal range is considered clinically meaningful. Subjects are also monitored for adverse effects and/or clinically relevant changes in health status or results from laboratory analyses. […]

[4] = Previously determined no observable adverse effect level (NOAEL) and exposure at it; settings: in vivo
Procedure: as §2

[5] = alternate day dosing after once-daily treatment
[6] = 0.3 mg/kg/day, once-daily oral, 14 days
[7] = 10 mg/kg/day (highest dose), once-daily oral, 14 days

| recovery of TSH levels during Cycle 2 Extension (beagle dogs [1]; [5]) | recovery of fT3 levels during Cycle 2 Extension (beagle dogs [1]; [5]) | TSH levels reduced from baseline on Day 15 (beagle dogs [1]; once-daily treatment, Day 15, non-dose-dependent) | reductions of serum tT4 from baseline levels (beagle dogs [1]; once-daily treatment, dose-dependent, across dose groups) | reductions of fT4 from baseline levels (beagle dogs [1]; once-daily treatment, dose-related, across dose groups) | reductions of fT3 from baseline levels (beagle dogs [1]; once-daily treatment, non-dose-dependent, across dose groups) | SMILES | levels of fT4 during Cycle 2 Extension (beagle dogs [1]; [5]) | levels of tT4 during Cycle 2 Extension (beagle dogs [1]; [5]) | effects on serum TSH levels on Day 8 (beagle dogs [1]; once-daily treatment, Day 8) | changes in tT3 levels relative to baseline levels (beagle dogs [1]; once-daily treatment, compared with vehicle-treated group) | effects on total plasma cholesterol levels (beagle dogs [2]; 0.1 mg/kg/day (lowest dose), once-daily oral) | average reduction of total plasma cholesterol levels on Day 15 (beagle dogs [2]; [6]) [mg/dL] | average reduction of total plasma cholesterol levels on Day 15 from baseline (beagle dogs [2]; [6]) [%] | average reduction of total plasma cholesterol levels on Day 15 (beagle dogs [2]; [7]) [mg/dL] | average reduction of total plasma cholesterol levels on Day 15 from baseline (beagle dogs [2]; [7]) [%] | total plasma cholesterol levels during alternate day dosing (beagle dogs [2]; Cycle 2 Extension, alternate day dosing for 14 days after 14 days once-daily) | reductions of average total plasma cholesterol levels from baseline (beagle dogs [2]; once-daily oral, 14 days, 0.1-10 mg/kg) | LDL-C [3] | triglycerides [3] | NOAEL [4] [mg/kg/day] |
| --- | --- | --- | --- | --- | --- | --- | --- | --- | --- | --- | --- | --- | --- | --- | --- | --- | --- | --- | --- | --- |
| more variable recovery | more variable recovery | 6-27% | 20-54% | 8-39% | 15-32% | Cc1cc(OC[P@]2(=O)OC[C@@H](c3cccc(Cl)c3)CO2)cc(C)c1Cc1ccc(O)c(C(C)C)c1 [Compound 2] | gradually recovered to levels that approached those of vehicle-treated animals | gradually recovered to levels that approached those of vehicle-treated animals | variable, with full suppression in some animals and up to 4-fold elevations in others | no meaningful changes; also recorded: unaffected | minimal effects | -28 | ~22 | -71 | ~47 | remained reduced relative to vehicle-treated animals to a similar or greater extent than observed after once-daily dosing; also recorded: did not compromise cholesterol lowering efficacy | up to 47% | – | – | – |
| – | – | – | – | – | – | Cc1cc(OCP(=O)(OCOC(=O)C(C)(C)C)OCOC(=O)C(C)(C)C)cc(C)c1Cc1ccc(O)c(Cc2ccccc2)c1 [Compound 1] | – | – | – | – | – | – | – | – | – | – | – | dose and/or schedule dependent decreases | dose and/or schedule dependent decreases | 5 |
